Measurements from patent publication US11149037B2, “Pyrazole MAGL inhibitors” (H. Lundbeck A/S, priority 2017, dated 2021).

Key:
Type in all cases: biochemical
[1] = target: FAAH (Homo sapiens (Human), UniProt O00519); assay: In vitro competitive activity-based protein profiling, human proteomes (prefrontal cortex or PC3 cell membrane fractions); conditions: human proteome; for inhibition at 1 µM: read-out: FAAH % inh. 1 μM (human)
Method in brief: (§1)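 Activity of MAGL and FAAH was quantified from fluorescent gel band intensities. Beforehand, inhibitors at several concentrations competed against subsequent probe labelling (FP-Rh, JW912 or HT-01) in species-matched proteomes, each step 30 min at 37° C.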

[2] = target: MAGL (Homo sapiens (Human), UniProt Q99685); assay: as above; conditions: human proteome; for inhibition at 1 µM: read-out: MAGL % inh. 1 μM (human)
Chain of MAGL (Homo sapiens (Human), UniProt Q99685) (Q99685 whole entry): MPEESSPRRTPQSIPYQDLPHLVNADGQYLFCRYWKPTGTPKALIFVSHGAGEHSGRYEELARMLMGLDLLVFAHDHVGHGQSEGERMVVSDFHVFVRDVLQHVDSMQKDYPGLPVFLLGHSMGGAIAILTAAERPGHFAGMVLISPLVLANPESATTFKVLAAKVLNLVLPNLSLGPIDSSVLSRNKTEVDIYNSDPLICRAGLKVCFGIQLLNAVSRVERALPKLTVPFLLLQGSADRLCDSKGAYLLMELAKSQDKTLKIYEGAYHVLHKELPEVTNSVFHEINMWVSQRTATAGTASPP
Method in brief: as §1

[3] = target: FAAH (Mus musculus (Mouse), UniProt O08914); assay: In vitro competitive activity-based protein profiling, mouse proteomes (brain membrane fraction or cell lysates); conditions: mouse proteome, read-out: FAAH % inh. 1 μM (mouse)
Chain of FAAH (Mus musculus (Mouse), UniProt O08914) (O08914 whole entry): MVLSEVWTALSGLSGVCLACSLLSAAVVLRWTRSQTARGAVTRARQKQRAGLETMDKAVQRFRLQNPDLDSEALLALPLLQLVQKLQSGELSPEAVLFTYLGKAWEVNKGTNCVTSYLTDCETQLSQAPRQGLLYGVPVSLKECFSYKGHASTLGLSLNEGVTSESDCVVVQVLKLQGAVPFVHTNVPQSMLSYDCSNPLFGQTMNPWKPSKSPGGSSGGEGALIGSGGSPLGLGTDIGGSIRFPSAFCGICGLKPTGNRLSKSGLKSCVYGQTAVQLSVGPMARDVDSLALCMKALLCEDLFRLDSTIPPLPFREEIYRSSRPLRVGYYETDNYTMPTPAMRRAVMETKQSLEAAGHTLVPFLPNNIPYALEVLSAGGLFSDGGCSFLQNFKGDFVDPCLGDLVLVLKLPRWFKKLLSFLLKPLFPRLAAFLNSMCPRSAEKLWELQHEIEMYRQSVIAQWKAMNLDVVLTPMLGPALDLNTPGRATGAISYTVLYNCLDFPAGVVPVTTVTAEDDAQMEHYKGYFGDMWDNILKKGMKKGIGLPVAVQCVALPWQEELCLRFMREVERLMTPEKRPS
Method in brief: as §1

[4] = target: MAGL (Mus musculus (Mouse), UniProt O35678); assay: as above; conditions: mouse proteome, read-out: MAGL % inh. 1 μM (mouse)
Chain of MAGL (Mus musculus (Mouse), UniProt O35678) (O35678 whole entry): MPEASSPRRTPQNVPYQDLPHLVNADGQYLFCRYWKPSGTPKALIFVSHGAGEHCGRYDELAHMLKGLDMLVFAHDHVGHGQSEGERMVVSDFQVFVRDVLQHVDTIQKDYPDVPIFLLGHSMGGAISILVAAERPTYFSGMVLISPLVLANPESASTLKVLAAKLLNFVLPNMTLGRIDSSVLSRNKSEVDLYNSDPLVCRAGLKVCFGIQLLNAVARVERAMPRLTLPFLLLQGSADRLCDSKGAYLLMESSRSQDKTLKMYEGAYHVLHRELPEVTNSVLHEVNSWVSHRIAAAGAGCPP
Method in brief: as §1

Chain of FAAH (Homo sapiens (Human), UniProt O00519) (O00519 whole entry): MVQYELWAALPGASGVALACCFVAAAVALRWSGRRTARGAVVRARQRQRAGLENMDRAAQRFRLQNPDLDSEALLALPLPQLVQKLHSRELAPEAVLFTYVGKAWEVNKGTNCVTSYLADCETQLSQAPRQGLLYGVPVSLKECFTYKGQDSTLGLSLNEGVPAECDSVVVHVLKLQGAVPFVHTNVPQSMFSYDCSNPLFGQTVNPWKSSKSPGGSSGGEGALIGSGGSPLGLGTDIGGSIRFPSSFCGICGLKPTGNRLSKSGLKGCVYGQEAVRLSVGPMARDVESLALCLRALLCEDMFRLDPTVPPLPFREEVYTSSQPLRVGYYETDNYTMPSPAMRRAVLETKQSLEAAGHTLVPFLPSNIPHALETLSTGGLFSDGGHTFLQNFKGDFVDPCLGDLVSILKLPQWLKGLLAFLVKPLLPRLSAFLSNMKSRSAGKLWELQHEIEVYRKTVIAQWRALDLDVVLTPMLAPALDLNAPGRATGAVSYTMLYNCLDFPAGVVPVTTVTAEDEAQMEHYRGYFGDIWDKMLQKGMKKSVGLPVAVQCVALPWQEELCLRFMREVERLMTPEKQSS

Structure (SMILES)	inhibition at 1 µM [1] [%]	inhibition at 1 µM [2] [%]	inhibition at 1 µM [3] [%]	inhibition at 1 µM [4] [%]	inhibition at 10 µM ([2]; 10 μM, read-out: MAGL % inh. (human) @ 10 μM) [%]	inhibition at 50 µM ([2]; 50 μM, read-out: MAGL % inh. (human) @ 50 μM) [%]	IC50 [1] [µM]	IC50 [2] [µM]
CN(Cc1ccc(C(F)(F)F)nc1N1CCCC1)C1(C)CCN(C(=O)n2ccc(NS(C)(=O)=O)n2)CC1 [Example 91, N-(1-(4-Methyl-4-(methyl((2-(pyrrolidin-1-yl)-6-(trifluoromethyl)pyridin-3-yl)methyl)amino)piperidine-1-carbonyl)-1H-pyrazol-3-yl)methanesulfonamide]	25 to 50	> 75	50 to 75	> 75				
CC(=O)Nc1ccn(C(=O)N2CC3CN(Cc4cc(N5CCOCC5)cc(C(F)(F)F)c4)CC3C2)n1 (stereo not shown) [Example 166, N-(1-(5-(3-Morpholino-5-(trifluoromethyl)benzyl)octahydropyrrolo[3,4-c]pyrrole-2-carbonyl)-1H-pyrazol-3-yl)acetamide]	0 to 25	> 75	> 75	> 75				
CC(=O)Nc1ccn(C(=O)N2CCC3(CCCN3Cc3ccc(Cl)cc3OCCCC(=O)O)CC2)n1 [Example 105, 4-(2-((8-(3-Acetamido-1H-pyrazole-1-carbonyl)-1,8-diazaspiro[4.5]decan-1-yl)methyl)-5-chlorophenoxy)butanoic acid]	0 to 25	> 75	0 to 25	> 75				
CS(=O)(=O)Nc1ccn(C(=O)N2CCN(Cc3ccncc3N3CCCC3)CC2)n1 [Example 82, N-(1-(4-((3-(Pyrrolidin-1-yl)pyridin-4-yl)methyl)piperazine-1-carbonyl)-1H-pyrazol-3-yl)methanesulfonamide]	0 to 25	> 75	0 to 25	50 to 75				
CS(=O)(=O)Nc1ccn(C(=O)N2CCN(Cc3ccc(Cl)c(N4CC5CN(C(N)=O)CC5C4)c3)CC2)n1 (stereo not shown) [Example 9, 5-(2-Chloro-5-((4-(3-(methylsulfonamido)-1H-pyrazole-1-carbonyl)piperazin-1-yl)methyl)phenyl)hexahydropyrrolo[3,4-c]pyrrole-2(1H)-carboxamide]	0 to 25	> 75	0 to 25	> 75				
CS(=O)(=O)Nc1ccn(C(=O)N2CCC3(CCCN3Cc3cc4ccc(C(F)(F)F)cc4s3)CC2)n1 [Example 53, N-(1-(1-((6-(Trifluoromethyl)benzo[b]thiophen-2-yl)methyl)-1,8-diazaspiro[4.5]decane-8-carbonyl)-1H-pyrazol-3-yl)methanesulfonamide]	0 to 25		0 to 25	0 to 25	> 75			
CC(=O)Nc1ccn(C(=O)N2CCN(Cc3ccc(Cl)cc3OCC(=O)O)CC2)n1 [Example 3, 2-(2-((4-(3-acetamido-1H-pyrazole-1-carbonyl)piperazin-1-yl)methyl)-5-chlorophenoxy)acetic acid]	0 to 25	> 75	0 to 25	> 75				
CC(=O)Nc1ccn(C(=O)N2CCN(Cc3ccc(C(N)=O)c(C(F)(F)F)c3)CC2)n1 [Example 123, 4-((4-(3-Acetamido-1H-pyrazole-1-carbonyl)piperazin-1-yl)methyl)-2-(trifluoromethyl)benzamide]	0 to 25	> 75	0 to 25	> 75				
CS(=O)(=O)Nc1ccn(C(=O)N2C[C@H]3C[C@H](OCc4cccc(C(F)(F)F)c4)C[C@H]3C2)n1 [Example 28, N-(1-((3aR,5s,6aS)-5-((3-(trifluoromethyl)benzyl)oxy)octahydrocyclopenta[c]pyrrole-2-carbonyl)-1H-pyrazol-3-yl)methanesulfonamide]	> 75	> 75	> 75	> 75				
CS(=O)(=O)Nc1ccn(C(=O)N2CC3CN(Cc4ccc(N5CCCC5)cc4C(F)(F)F)CC3C2)n1 (stereo not shown) [Example 47, N-(1-(5-(4-(Pyrrolidin-1-yl)-2-(trifluoromethyl)benzyl)octahydropyrrolo[3,4-c]pyrrole-2-carbonyl)-1H-pyrazol-3-yl)methanesulfonamide]	0 to 25		0 to 25	0 to 25		25 to 50		
CC(=O)Nc1ccn(C(=O)N2CCC3(CCCN3Cc3cc4cc(C(=O)O)ccc4[nH]3)CC2)n1 [Example 49, 2-((8-(3-Acetamido-1H-pyrazole-1-carbonyl)-1,8-diazaspiro[4.5]decan-1-yl)methyl)-1H-indole-5-carboxylic acid]	0 to 25	25 to 50	0 to 25	50 to 75				
CS(=O)(=O)Nc1ccn(C(=O)N2CCC(Oc3ccc(Cl)c(OC4CCCC4)c3)CC2)n1 [Example 6, N-(1-(4-(4-chloro-3-(cyclopentyloxy)phenoxy)piperidine-1-carbonyl)-1H-pyrazol-3-yl)methanesulfonamide]	0 to 25	> 75	0 to 25	> 75				
CC(=O)Nc1ccn(C(=O)N2CCN(Cc3cc(Cl)cc(Cl)c3)CC2)n1 [Example 144, N-(1-(4-(3,5-Dichlorobenzyl)piperazine-1-carbonyl)-1H-pyrazol-3-yl)acetamide]	0 to 25	> 75	0 to 25	> 75				
CC(=O)Nc1ccn(C(=O)N2CCN(Cc3cc(Cl)cc(Oc4ccc(Cl)cc4)c3)CC2)n1 [Example 17, N-(1-(4-(3-chloro-5-(4-chlorophenoxy)benzyl)piperazine-1-carbonyl)-1H-pyrazol-3-yl)acetamide]	> 75	> 75	> 75	> 75				
CC(=O)Nc1ccn(C(=O)N2CCN(Cc3cccc(C(F)(F)F)c3C)CC2)n1 [Example 129, N-(1-(4-(2-Methyl-3-(trifluoromethyl)benzyl)piperazine-1-carbonyl)-1H-pyrazol-3-yl)acetamide]	0 to 25	> 75	0 to 25	> 75				
CS(=O)(=O)Nc1ccn(C(=O)N2CCN(Cc3ccc(Cl)c(N4CC5(CCOCC5)C4)c3)CC2)n1 [Example 8, N-(1-(4-(4-chloro-3-(7-oxa-2-azaspiro[3.5]nonan-2-yl)benzyl)piperazine-1-carbonyl)-1H-pyrazol-3-yl)methanesulfonamide]	0 to 25	> 75	0 to 25	> 75				
CC(=O)Nc1ccn(C(=O)N2CC3CN(Cc4cccc(OC(F)(F)F)c4)CC3C2)n1 (stereo not shown) [Example 113, N-(1-(5-(3-(Trifluoromethoxy)benzyl)octahydropyrrolo[3,4-c]pyrrole-2-carbonyl)-1H-pyrazol-3-yl)acetamide]	25 to 50	> 75	> 75	> 75				
CC(=O)Nc1ccn(C(=O)N2CC3CN(Cc4cccc(Oc5ccccc5Cl)c4)CC3C2)n1 (stereo not shown) [Example 18, N-(1-(5-(3-(2-chlorophenoxy)benzyl)octahydropyrrolo[3,4-c]pyrrole-2-carbonyl)-1H-pyrazol-3-yl)acetamide]	> 75	> 75	> 75	> 75			0.1 to 1	< 0.1
CC(=O)Nc1ccn(C(=O)N2CCC3(CCCN3C(=O)c3cc4ccc(C(F)(F)F)cc4s3)CC2)n1 [Example 155, N-(1-(1-(6-(Trifluoromethyl)benzo[b]thiophene-2-carbonyl)-1,8-diazaspiro[4.5]decane-8-carbonyl)-1H-pyrazol-3-yl)acetamide]	0 to 25	> 75	> 75	> 75				
CS(=O)(=O)Nc1ccn(C(=O)N2CCC(Oc3ccc(C(F)(F)F)cc3N3CCCC3=O)CC2)n1 [Example 100, N-(1-(4-(2-(2-Oxopyrrolidin-1-yl)-4-(trifluoromethyl)phenoxy)piperidine-1-carbonyl)-1H-pyrazol-3-yl)methanesulfonamide]	0 to 25	50 to 75	0 to 25	50 to 75				
CS(=O)(=O)Nc1ccn(C(=O)N2CCC3(CCN(Cc4cc(N5CCOCC5)cc(C(F)(F)F)c4)C3)CC2)n1 [Example 59, N-(1-(2-(3-Morpholino-5-(trifluoromethyl)benzyl)-2,8-diazaspiro[4.5]decane-8-carbonyl)-1H-pyrazol-3-yl)methanesulfonamide]	0 to 25	> 75	0 to 25	> 75				
CC1CN(C(=O)n2ccc(NS(C)(=O)=O)n2)CCN1Cc1ccc(C(F)(F)F)cc1N1CCCC1 (stereo not shown) [Example 88, N-(1-(3-Methyl-4-(2-(pyrrolidin-1-yl)-4-(trifluoromethyl)benzyl)piperazine-1-carbonyl)-1H-pyrazol-3-yl)methanesulfonamide]	0 to 25	> 75	0 to 25	> 75				
CS(=O)(=O)Nc1ccn(C(=O)N2CCC(Oc3ccc(C(F)(F)F)cc3NCC(=O)O)CC2)n1 [Example 99, (2-((1-(3-(Methylsulfonamido)-1H-pyrazole-1-carbonyl)piperidin-4-yl)oxy)-5-(trifluoromethyl)phenyl)glycine]	0 to 25	> 75	0 to 25	> 75				
